Like-named read-outs stand apart in the source and are kept apart here.
System: MCF-7 cells
Experiment: cell cytotoxic effects against MCF-7 cells (72 h), A490
Type: cell-based, human
Conditions: for viability at 0.1 µM / viability at 1 µM / viability at 10 µM: Homo sapiens, MCF7, 72 h, read-out: A490 (control =1) ave
Method: !" ' ' '! !" ' ' '! !" ' ' '!!" ' ' '!!" ' ' '!!" ' ' '!!" ' ' '!!" ' ' '! !" ' ' '! !" ' ' '! !" ' ' '! !"#$
( % ) * '! '' '# '+ '$ '( '%
! " # $ %& %% %' %( %) %! %"
!" ' ' '! !" ' ' '!!" ' ' '!!" ' ' '!!" ' ' '!!" ' ' '!!" ' ' '! !" ' ' '! !" ' ' '! !" ' ' '! !" ' ' '! […]
Supplementary Fig. 46. a, Cell cytotoxic effects of DDPs against MCF-7 cells (72 h).
dose dependent cytotoxic effects against MCF-7 cells were tested their inhibitory activity against mammosphere
formation. Compound in blue (16) was also performed mammosphere assay as negative control. Data represent
mean±s.d. from three independent replicate experiments. […]
Source data underlying Supplementary Figure 46a are provided in a Source Data file. […]

[1] = MCF-7, 72 h, 0.1 µM (DMSO 0.002%)
[2] = MCF-7, 72 h, 0.1 µM (DMSO 0.002%), control 1.064
[3] = MCF-7, 72 h, 1 µM (DMSO 0.02%), control 1.104
[4] = MCF-7, 72 h, 10 µM (DMSO 0.2%), control 1.049

Structure (SMILES): C=C1CCC2C(C)(CC(=O)C=C(C)C)C(O)CCC2(C)C1Cc1c(O)c(C)c(C)oc1=O (stereo not shown) [Compound 7]
- viability at 0.1 µM [1]: 81%
- viability at 1 µM (MCF-7, 72 h, 1 µM (DMSO 0.02%)): 92.4%
- viability at 10 µM (MCF-7, 72 h, 10 µM (DMSO 0.2%)): 104%
- A490 ave [2]: 0.862
- A490 ave [3]: 1.021
- A490 ave [4]: 1.095

Structure (SMILES): C=C1CCC2C(C)(CC(=O)C=C(C)C)C(O)CCC2(C)C1Cc1c(OC)oc(C)c(C)c1=O (stereo not shown) [Compound 25]
- viability at 0.1 µM [1]: 78.9%
- viability at 1 µM (MCF-7, 72 h, 1 µM (DMSO 0.02%)): 103%
- viability at 10 µM (MCF-7, 72 h, 10 µM (DMSO 0.2%)): 112%
- A490 ave [2]: 0.839
- A490 ave [3]: 1.141
- A490 ave [4]: 1.171

Structure (SMILES): C=C1CCC2C(C)(CCC=C(C)C)C(O)CCC2(C)C1Cc1c(OC)oc(C)c(C)c1=O (stereo not shown) [Compound 11]
- cytotoxicity against the bulk of MCF-7 cells: dose-dependent cytotoxicity
- viability at 0.1 µM [1]: 92.2%
- viability at 1 µM (MCF-7, 72 h, 1 µM (DMSO 0.02%)): 34.3%
- viability at 10 µM (MCF-7, 72 h, 10 µM (DMSO 0.2%)): 21.4%
- A490 ave [2]: 0.981
- A490 ave [3]: 0.379
- A490 ave [4]: 0.224

Structure (SMILES): C=C1CC[C@H]2[C@]3(C)C[C@H](C=C(C)C)O[C@H]3CC[C@]2(C)[C@@H]1Cc1c(OC)oc(CO)c(C)c1=O [Compound 18]
- cytotoxicity against the bulk of MCF-7 cells: dose-dependent cytotoxicity
- viability at 0.1 µM [1]: 65.7%
- viability at 1 µM (MCF-7, 72 h, 1 µM (DMSO 0.02%)): 26.3%
- viability at 10 µM (MCF-7, 72 h, 10 µM (DMSO 0.2%)): 15%
- A490 ave [2]: 0.699
- A490 ave [3]: 0.290
- A490 ave [4]: 0.158

Structure (SMILES): C=C1CC[C@@H]2[C@](C)(CC[C@H]3O[C@H](C=C(C)C)C[C@@]23C)[C@@H]1Cc1c(OC)oc(C)c(C)c1=O [Compound 22, O-methylated higginsianin A]
- cytotoxicity against the bulk of MCF-7 cells: dose-dependent cytotoxicity
- viability at 0.1 µM [1]: 81.4%
- viability at 1 µM (MCF-7, 72 h, 1 µM (DMSO 0.02%)): 48%
- viability at 10 µM (MCF-7, 72 h, 10 µM (DMSO 0.2%)): 30.1%
- A490 ave [2]: 0.866
- A490 ave [3]: 0.530
- A490 ave [4]: 0.316

Structure (SMILES): C=C1CCC2C(C)(CC(=O)C=C(C)C)C(O)CCC2(C)C1Cc1c(OC)oc(CO)c(C)c1=O (stereo not shown) [Compound 19]
- viability at 0.1 µM [1]: 65%
- viability at 1 µM (MCF-7, 72 h, 1 µM (DMSO 0.02%)): 110%
- viability at 10 µM (MCF-7, 72 h, 10 µM (DMSO 0.2%)): 104%
- A490 ave [2]: 0.691
- A490 ave [3]: 1.209
- A490 ave [4]: 1.093

Structure (SMILES): C=C1CCC2C(C)(CCC=C(C)C)C(O)CCC2(C)C1Cc1c(OC)oc(CO)c(C)c1=O (stereo not shown) [Compound 16]
- cytotoxicity against the bulk of MCF-7 cells: Low-toxicity
- A490 ave [2]: 0.808
- A490 ave [3]: 1.178
- A490 ave [4]: 0.730

Structure (SMILES): C=C1CC[C@H]2[C@]3(C)C[C@@H](C=C(C)C)O[C@H]3CC[C@]2(C)[C@@H]1Cc1c(O)c(C)c(C)oc1=O [Compound 5, subglutinol A]
- cytotoxicity against the bulk of MCF-7 cells: dose-dependent cytotoxicity
- viability at 0.1 µM [1]: 45.9%
- viability at 1 µM (MCF-7, 72 h, 1 µM (DMSO 0.02%)): 45.5%
- viability at 10 µM (MCF-7, 72 h, 10 µM (DMSO 0.2%)): 8.4%
- A490 ave [2]: 0.489
- A490 ave [3]: 0.503
- A490 ave [4]: 0.088

Structure (SMILES): C=C1CCC2C(C)(CCC=C(C)C)C(O)CCC2(C)C1Cc1c(OC)oc(CO)c(C(=O)OC)c1=O (stereo not shown) [Compound 13]
- viability at 0.1 µM [1]: 89.1%
- viability at 1 µM (MCF-7, 72 h, 1 µM (DMSO 0.02%)): 106%
- viability at 10 µM (MCF-7, 72 h, 10 µM (DMSO 0.2%)): 98.6%
- A490 ave [2]: 0.948
- A490 ave [3]: 1.176
- A490 ave [4]: 1.034

Structure (SMILES): C=C1CCC2C(C)(CCC=C(C)C)C(O)CCC2(C)C1Cc1c(OC)oc(CO)c(C)c1=O (stereo not shown) [Compound 12]
- cytotoxicity against the bulk of MCF-7 cells: dose-dependent cytotoxicity
- viability at 0.1 µM [1]: 72.1%
- A490 ave [2]: 0.767
- A490 ave [3]: 0.265
- A490 ave [4]: 0.189

Structure (SMILES): C=C1CCC2C(C)(CCC=C(C)C)C(O)CCC2(C)C1Cc1c(O)c(C)c(C)oc1=O (stereo not shown) [Compound 9, higginsianin B]
- viability at 0.1 µM [1]: 53.1%
- viability at 1 µM (MCF-7, 72 h, 1 µM (DMSO 0.02%)): 95.5%
- viability at 10 µM (MCF-7, 72 h, 10 µM (DMSO 0.2%)): 27.3%
- A490 ave [2]: 0.565
- A490 ave [3]: 1.055
- A490 ave [4]: 0.286

Structure (SMILES): C=C1CC[C@@H]2[C@](C)(CC[C@H]3O[C@H](C=C(C)C)C[C@@]23C)[C@@H]1Cc1c(OC)oc(CO)c(C(=O)OC)c1=O [Compound 21]
- viability at 0.1 µM [1]: 114%
- viability at 1 µM (MCF-7, 72 h, 1 µM (DMSO 0.02%)): 118%
- viability at 10 µM (MCF-7, 72 h, 10 µM (DMSO 0.2%)): 103%
- A490 ave [2]: 1.213
- A490 ave [3]: 1.298
- A490 ave [4]: 1.083

Structure (SMILES): C=C1CCC2C(C)(CCC=C(C)C)C(O)CCC2(C)C1Cc1c(OC)oc(C)c(C(=O)OC)c1=O (stereo not shown) [Compound 14]
- viability at 0.1 µM [1]: 74.8%
- viability at 1 µM (MCF-7, 72 h, 1 µM (DMSO 0.02%)): 75.6%
- viability at 10 µM (MCF-7, 72 h, 10 µM (DMSO 0.2%)): 19.7%
- A490 ave [2]: 0.796
- A490 ave [3]: 0.834
- A490 ave [4]: 0.207

Structure (SMILES): C=C1CC[C@@H]2[C@](C)(CC[C@H]3O[C@H](C=C(C)C)C[C@@]23C)[C@@H]1Cc1c(O)c(C)c(C)oc1=O [Compound 10, higginsianin A]
- viability at 0.1 µM [1]: 62.9%
- viability at 1 µM (MCF-7, 72 h, 1 µM (DMSO 0.02%)): 94.3%
- viability at 10 µM (MCF-7, 72 h, 10 µM (DMSO 0.2%)): 17.9%
- A490 ave [2]: 0.669
- A490 ave [3]: 1.042
- A490 ave [4]: 0.188

Structure (SMILES): C=C1CC[C@H]2[C@]3(C)C[C@H](C=C(C)C)O[C@H]3CC[C@]2(C)[C@@H]1Cc1c(O)c(C)c(C)oc1=O [Compound 6, subglutinol B]
- viability at 0.1 µM [1]: 55.9%
- viability at 1 µM (MCF-7, 72 h, 1 µM (DMSO 0.02%)): 109%
- viability at 10 µM (MCF-7, 72 h, 10 µM (DMSO 0.2%)): 22.4%
- A490 ave [2]: 0.595
- A490 ave [3]: 1.207
- A490 ave [4]: 0.235

Structure (SMILES): C=C1CC[C@H]2[C@]3(C)C[C@@H](C=C(C)C)O[C@H]3CC[C@]2(C)[C@@H]1Cc1c(OC)oc(CO)c(C)c1=O [Compound 17]
- cytotoxicity against the bulk of MCF-7 cells: dose-dependent cytotoxicity
- viability at 0.1 µM [1]: 84.7%
- viability at 1 µM (MCF-7, 72 h, 1 µM (DMSO 0.02%)): 48.1%
- viability at 10 µM (MCF-7, 72 h, 10 µM (DMSO 0.2%)): 29.4%
- A490 ave [2]: 0.901
- A490 ave [3]: 0.531
- A490 ave [4]: 0.309

Structure (SMILES): C=C1CC[C@@H]2[C@](C)(CC[C@H]3O[C@H](C=C(C)C)C[C@@]23C)[C@@H]1Cc1c(OC)oc(CO)c(C)c1=O [Compound 20]
- cytotoxicity against the bulk of MCF-7 cells: dose-dependent cytotoxicity
- viability at 0.1 µM [1]: 90%
- viability at 1 µM (MCF-7, 72 h, 1 µM (DMSO 0.02%)): 45.3%
- viability at 10 µM (MCF-7, 72 h, 10 µM (DMSO 0.2%)): 29.4%
- A490 ave [2]: 0.958
- A490 ave [3]: 0.500
- A490 ave [4]: 0.308

Structure (SMILES): C=C1CCC2C3(C)CC(C=C(C)C)OC3CCC2(C)C1Cc1c(OC)oc(C)c(C)c1=O (stereo not shown) [Compound 23]
- cytotoxicity against the bulk of MCF-7 cells: dose-dependent cytotoxicity
- viability at 0.1 µM [1]: 62.5%
- viability at 1 µM (MCF-7, 72 h, 1 µM (DMSO 0.02%)): 21.6%
- viability at 10 µM (MCF-7, 72 h, 10 µM (DMSO 0.2%)): 14.8%
- A490 ave [2]: 0.664
- A490 ave [3]: 0.239
- A490 ave [4]: 0.155

Structure (SMILES): C=C1CCC2C(C)(CCC=C(C)C)C(O)CCC2(C)C1Cc1c(OC)oc(C)c(C)c1=O (stereo not shown) [Compound 15, viridoxin A hydrolysate]
- viability at 0.1 µM: 82%
- viability at 1 µM: 121%
- viability at 10 µM: 61.8%
- A490 ave [2]: 0.873
- A490 ave [3]: 1.333
- A490 ave [4]: 0.649

Structure (SMILES): C=C1CC[C@H]2[C@]3(C)C[C@H](C=C(C)C)O[C@H]3CC[C@]2(C)[C@@H]1Cc1c(OC)oc(C)c(C)c1=O [Compound 24]
- viability at 0.1 µM [1]: 64%
- viability at 1 µM (MCF-7, 72 h, 1 µM (DMSO 0.02%)): 76.3%
- viability at 10 µM (MCF-7, 72 h, 10 µM (DMSO 0.2%)): 12.6%
- A490 ave [2]: 0.680
- A490 ave [3]: 0.843
- A490 ave [4]: 0.132
